SMILES strings stand for the structures.

In one data set the test system is 16HBE cells. Description: Toxicity to normal human cell line 16HBE (Figure S1). In kind it is cell-based. The procedure:
(§1) Figure S1. The toxicity of Bruceine H (BH) and Bruceine D (BD) to 16HBE (A) and LO2 (B) cells was evaluated.

A further data set deals with LO2 cells. The data set can be described thus: Toxicity to normal human cell line LO2 (Figure S1). In kind it is cell-based. The method, then:
as §1

Another data set has as its system PC-9 cells. The data set can be described thus: cells. The class given is cell-based, human. The conditions noted are these: PC-9, 48 h; read-out: IC50. The procedure: (§2) The human NSCLC cell lines (A549, PC-9, and PC-9/GR) and other cell lines (16HBE and LO2) were purchased from the American Type Culture Collection (ATCC, Manassas, VA, USA). […] All cell lines were cultivated at 37°C under 5% CO2.
(§3) The Cell Counting Kit-8 assays (Beyotime, Shanghai, China) were performed to assess cell viability. […] Microplate readers (Infinite F500, Tecan, Mannedorf, Switzerland) were used to measure the absorbance (A) at 450 nm. All samples were assessed in triplicate.

Data set [1] concerns A549 cells. Description: cells. The class given is cell-based, human. The conditions noted are these: A549, 48 h; read-out: IC50 (48 h). The procedure: as §2, §3
For data set [2], the system named is A549 cells. The data set can be described thus: Transwell migration and Matrigel invasion assays. The class given is cell-based, human. The conditions noted are these: dose-dependent, 12 h treatment. The method, then:
The Transwell insert in a 24-well plate (8 μm, Corning, NY, USA) was taken out, and a 600-μl medium containing 10% FBS was added to the bottom chamber. The A549 cells were resuspended with 10% FBS culture medium, and the diluted cell suspension (3 × 10^5/300 μl) was cultured in the top chamber and then incubated with or without Matrigel (BD BioCoat). After 12 h, the medium in the top chamber was changed to RPMI-1640 without FBS, and BD or BH with different concentrations was added ([31]). After an additional 12 h, the cells that migrated or invaded the bottom side of the polycarbonate film were fixed with methanol for 30 min and then stained for 15 min with 0.1% crystal violet (Solarbio), after which their number was assessed under a microscope (×4, Nikon).

Data set [3] is described as follows: Toxicity study in nude mice: organ index, blood routine, serum biochemistry. In kind it is in vivo. The procedure: At the end of the experiment, blood samples were taken and analyzed by blood routine. […] The lungs and spleen were weighed and recorded. H&E staining of the heart, liver, spleen, lungs, and kidneys was performed to evaluate the cytotoxic effects of BH.

Another data set relates to PC-9/GR xenografts. The data set can be described thus: PC-9/GR xenografts in BALB/c nude mice. The class given is in vivo. The conditions noted are these: BH 2.5 mg/kg, gefitinib 25 mg/kg, alone or co-administered, intragastric.
A further data set concerns PC-9/GR cells. Description: Apoptosis by flow cytometry (Annexin V-FITC/PI), PC-9/GR. In kind it is cell-based, human. The conditions noted are these: low-dose BH (4, 8 μM), gefitinib 25 μM, alone or combined. The procedure: After being digested with trypsin without EDTA, the cells were washed gently with culture medium and twice with cold PBS. The pellet was resuspended in 400 μl of 1× binding buffer, the resuspended cells were transferred to flow tubes, then Annexin V-FITC (5 μl) and propidium iodide (10 μl) were added, and the mixture was incubated for 15 min at room temperature in the dark. The percentage of apoptotic cells was determined by flow cytometry (Backman, CA, USA) and FlowJo V10 software.
Background: In flow cytometry, cells or beads pass a laser one at a time.

[4] abbreviates: nude mice serum, mean ± SD (Table S4).
[5] abbreviates: nude mice, routine blood (Table S3).

As for `CC1=CC(=O)[C@@H](O)[C@]2(C)[C@H]3[C@@H](O)[C@H](O)[C@@]4(C)OC[C@@]35[C@@H](C[C@@H]12)OC(=O)[C@H](O)[C@]54O` [BD, bruceine D, reference compound], the “toxicity to 16HBE cells” value in the data set with 16HBE cells is listed as “higher sensitivity”. For the same compound, in the data set with LO2 cells, the “toxicity to LO2 cells” value is “higher sensitivity”. The half-maximal inhibitory concentration (IC50) in the data set on PC-9 cells came to 21.8 µM; in the data set with A549 cells [1], 26.8 µM. Besides, the “Transwell migration and invasion of A549” value in the data set with A549 cells [2] was “significant anti-invasive and antimigratory actions”.

In data set [3] (setting [4]), `COc1cc2ncnc(Nc3ccc(F)c(Cl)c3)c2cc1OCCCN1CCOCC1` [Gef, Gefitinib, reference compound] displayed an HDL-C of 0.74 ± 0.28 mmol/L, an LDL-C of 0.89 ± 0.45 mmol/L, a TC of 3.49 ± 0.56 mmol/L and a TG of 0.74 ± 0.16 mmol/L. For the same compound, in data set [3] (setting [5]), the GR is recorded as 4.593±2.519 ×10^9/L, the “GR (%)” value was 83.467±4.674%, the HCT is on record as 50.933±6.123% and the HGB amounted to 148.667 ± 17.616 g/L. Also, in data set [3] (setting [5]), the LY is reported as 1.017±0.533 ×10^9/L, the “LY (%)” value is recorded as 14.2±2.685%, the MCH is 15.367 ± 0.306 pg and the MCHC was determined as 292 ± 2.646 g/L. In data set [3] (setting [5]), the MO was 0.213±0.274 ×10^9/L, the “MO (%)” value is given as 5.067±1.582%, the MPV was 6.933 ± 0.351 fL and the PCT was determined as 0.653±0.110 mL/L. Also, in data set [3] (setting [5]), the PLT was 934.333±117.1 ×10^9/L, the RBC is 9.687±1.162 ×10^12/L and the WBC was 6.483±1.439 ×10^8/L. Moreover, in the data set with PC-9/GR xenografts, the “tumor growth of PC-9/GR xenografts” value was “slight inhibitory effect”. In addition, the “apoptosis of PC-9/GR cells” value in the data set with PC-9/GR cells is on record as “little effects”.

As usually defined, the IC50 is the midpoint of a concentration-inhibition curve.

The values are drawn from paper PMC9024338, “Bruceine H Mediates EGFR-TKI Drug Persistence in NSCLC by Notch3-Dependent β-Catenin Activating FOXO3a Signaling” (Frontiers in Oncology, 2022).
